Assay results published in patent US8669072B2, “Oxadiazoline ligands for modulating the expression of exogenous genes via an ecdysone receptor complex” (Intrexon Corporation, priority 2003, dated 2014).

Columns and labels:
[1] = biological target: T1, GAL4 DBD-CfEcR(DEF)/VP16AD-MmRXRE (Choristoneura fumiferana, UniProt O77240); experiment: 13B3 assay: luciferase reporter gene induction in stable CHO clone 13B3; type: cell-based; conditions: 33/33.3 μM ligand, 48 h, RLU relative to DMSO; for fold induction at 33.3 µM: read-out: Fold Induction Average, 13B3 assay
T1 construct: The wild-type D, E, and F domains from spruce budworm Choristoneura fumiferana EcR (“CfEcR-DEF”)
Description: CHO cells were transiently transfected with transcription cassettes for GAL4 DBD-CfEcR(DEF) and for VP16AD-MmRXRF controlled by SV40e promoters. Stably transfected cells were selected using Hygromycin. Individually isolated CHO cell clones were transiently transfected with a GAL4 RE-luciferase reporter (pFR-Luc, Stratagene, La Jolla, Calif.). The 13B3 clone was selected using Zeocin.
(§1) Cells were trypsinized and diluted to a concentration of 2.5×10^4 cells mL. 100 μL of cell suspension was placed in each well of a 96 well plate and incubated at 37° C. under 5% CO2 for 24 h. Ligand stock solutions were prepared in DMSO and diluted 300 fold for all treatments.
(§2) Luciferase reporter gene expression was measured 48 h after cell treatment using Bright-Glo™ Luciferase Assay System from Promega (E2650). Luminescence was detected at room temperature using a Dynex MLX microtiter plate luminometer.
(§3) Each assay was conducted in two separate wells, and the two values were averaged. Fold inductions were calculated by dividing relative light units (“RLU”) in ligand treated cells with RLU in DMSO treated cells. EC50s were calculated from dose response data using a three-parameter logistic model.

Bombyx mori EcR (VBE) = biological target: T2, Bombyx mori EcR (VBE) (Bombyx mori, UniProt P49881); experiment: Z3 assay: β-galactosidase reporter gene induction in HEK-293 clone Z3 (CVBE / 6XEcRE LacZ); type: cell-based; conditions: 33 μM ligand, 48 h, RLU relative to DMSO; for fold induction at 33 µM: HEK293, read-out: Fold Induction Average, Z3 assay
T2 construct: expressed in transfected cells; host or cells: Human HEK-293 cells, retrovirally infected, clone Z3
T2 sequence (P49881 86-606 limits assumed): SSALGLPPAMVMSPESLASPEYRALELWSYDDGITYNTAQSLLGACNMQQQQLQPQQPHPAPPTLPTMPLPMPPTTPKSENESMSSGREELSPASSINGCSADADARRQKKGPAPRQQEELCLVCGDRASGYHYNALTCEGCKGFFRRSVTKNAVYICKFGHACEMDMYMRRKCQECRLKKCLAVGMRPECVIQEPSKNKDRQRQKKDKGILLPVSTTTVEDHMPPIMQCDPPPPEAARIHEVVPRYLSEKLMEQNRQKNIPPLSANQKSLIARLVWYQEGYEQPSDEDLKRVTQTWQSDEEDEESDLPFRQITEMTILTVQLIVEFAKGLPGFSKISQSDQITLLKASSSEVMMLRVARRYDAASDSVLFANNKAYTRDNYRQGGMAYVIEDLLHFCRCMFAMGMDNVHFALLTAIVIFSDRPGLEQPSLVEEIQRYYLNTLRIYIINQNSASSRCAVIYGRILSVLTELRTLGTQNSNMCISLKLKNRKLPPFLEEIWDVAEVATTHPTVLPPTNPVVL
T2 sequence (P19793 1-462 partner): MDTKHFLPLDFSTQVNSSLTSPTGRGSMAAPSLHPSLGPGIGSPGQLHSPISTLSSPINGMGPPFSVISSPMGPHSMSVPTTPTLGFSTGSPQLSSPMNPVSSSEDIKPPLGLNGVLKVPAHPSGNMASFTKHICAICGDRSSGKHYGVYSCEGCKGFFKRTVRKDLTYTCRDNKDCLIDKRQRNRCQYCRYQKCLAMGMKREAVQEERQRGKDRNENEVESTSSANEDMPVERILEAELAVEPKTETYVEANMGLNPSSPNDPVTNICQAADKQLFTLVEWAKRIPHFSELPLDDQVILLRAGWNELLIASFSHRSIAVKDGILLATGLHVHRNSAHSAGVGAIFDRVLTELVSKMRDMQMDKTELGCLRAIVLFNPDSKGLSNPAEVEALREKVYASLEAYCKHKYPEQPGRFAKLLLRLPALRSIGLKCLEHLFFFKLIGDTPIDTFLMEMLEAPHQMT
Description: A synthetic ATG start codon was placed under the control of cytomegalovirus (CVBE) immediate early promoter and flanked by long terminal repeats (LTR). The reporter construct contained six copies of the ecdysone response element (EcRE) binding site placed upstream of LacZ and flanked on both sides with LTR sequences (6×EcRE).
Dilution cloning was used to isolate individual clones. Clones were selected using 450 ug/mL G418 and 100 ng/mL puromycin. Individual clones were evaluated based on their response in the presence and absence of test ligands.
Z3 cells were seeded into 96-well tissue culture plates at a concentration of 2.5×10^3 cells per well and incubated at 37° C. in 5% CO2 for twenty-four hours. Stock solutions of ligands were prepared in DMSO. […] The final concentration of DMSO was maintained at 0.03% in both controls and treatments.
Reporter gene expression was evaluated 48 hours after treatment of cells, β-galactosidase activity was measured using Gal Screen™ bioluminescent reporter gene assay system from Tropix (GSY1000). Fold induction activities were calculated by dividing relative light units (“RLU”) in ligand treated cells with RLU in DMSO treated cells. Luminescence was detected at room temperature using a Dynex MLX microtiter plate luminometer.
as §3

[2] = biological target: T3, GAL4 DBD (1-147)-CfEcR(DEF)/VP16AD-βRXREF-LmUSPEF (Choristoneura fumiferana, UniProt O77240); experiment: cell-based
T3 construct: The wild-type D, E, and F domains from spruce budworm Choristoneura fumiferana EcR (“CfEcR-DEF”)
Description: Stably transfected cells were selected by Zeocin resistance. Individually isolated CHO cell clones were transiently transfected with a GAL4 RE-luciferase reporter (pFR Luc). 27-63 clone was selected using Hygromycin.
as §1, §2, §3

SMILES	Fold Induction Average, 13B3 assay [1]	Fold Induction Average, Z3 assay (Bombyx mori EcR (VBE))	further results
Cc1cc(C)cc(C2=NOC(C)(C)N2NC(=O)c2cccc(F)c2)c1 [RG-120002]			fold induction at 33.3 µM [1]: 0.2; fold induction at 33 µM (Bombyx mori EcR (VBE)): 3.9; EC50 [2]: > 33 µM; fold induction at 33.3 µM ([2]; 48 h, read-out: Fold Induction Average, 27-63 assay): 5.7; Rel Max FI, 27-63 assay ([2]; maximum fold induction relative to that of GS-E ligand): 0
CC1(C)ON=C(c2cccc(C(F)(F)F)c2)N1NC(=O)c1ccco1 [RG-120070]	0.4	0.7	
Cc1cc(C)cc(C2=NOC(C)(C)N2NC(=O)Nc2ccccc2)c1 [RG-120072, 1-[3-(3,5-Dimethyl-phenyl)-5,5-dimethyl-[1,2,4]oxadiazol-4-yl]-3-phenyl-urea]			fold induction at 33.3 µM [1]: 0.6; fold induction at 33 µM (Bombyx mori EcR (VBE)): 1.3
CC1(C)ON=C(c2ccc(Cl)cc2)N1NC(=O)C(F)(F)C(F)(F)Cl [RG-120073]	0.9	0.5	
COc1ccccc1C(=O)NN1C(c2cc(C)cc(C)c2)=NOC1(C)C [RG-120075]	1.1	0.7	
COc1ccc(C2=NOC(C)(C)N2NC(=O)COc2ccccc2)c(OC)c1 [RG-120079]	0.7	0.6	
CC1(C)ON=C(c2ccc3c(c2)OCO3)N1NC(=O)Cc1ccccc1 [RG-120081]	0.5	0.6	
CC1(C)ON=C(c2ccc(Cl)cc2)N1NC(=O)c1ccco1 [RG-120082]	0.1	0.8	
CCOC(=O)CCC(=O)NN1C(c2ccc3c(c2)OCO3)=NOC1(C)C [RG-120083]	1.3	0.8	
COc1cccc(C(=O)NN2C(c3cc(C)cc(C)c3)=NOC23CCOCC3)c1C [RG-120086, N-[3-(3,5-dimethyl-phenyl)-1,8-dioxa-2,4-diaza-spiro[4.5]dec-2-en-4-yl]-3-methoxy-2-methyl-benzamide]			fold induction at 33.3 µM [1]: 4; fold induction at 33 µM (Bombyx mori EcR (VBE)): 112
CC1(C)ON=C(c2ccc(Cl)cc2)N1NC(=O)c1cc2ccccc2s1 [RG-120087]	0.4	0.4	
Cc1cc(C)cc(C2=NOC(C)(C)N2NC(=O)NCc2ccccc2)c1 [RG-120088]	0.9	8.2	
Cc1cc(C)cc(C2=NOC(C)(C)N2NC(=O)c2cccc([N+](=O)[O-])c2)c1 [RG-120091]	0.5	1.5	
CC1(C)ON=C(c2ccc(OC(F)(F)F)cc2)N1NC(=O)c1ccco1 [RG-120094]	0.6	0.8	
Cc1cc(C)cc(C2=NOC(C)(C)N2NC(=O)c2ccccc2[N+](=O)[O-])c1 [RG-120098]	0.3	1.8	
COc1ccc(C2=NOC(C)(C)N2NC(=O)c2ccco2)c(OC)c1 [RG-120102]	0.5	0.8	
COc1ccc(C2=NOC(C)(C)N2NC(=O)COCc2ccccc2)c(OC)c1 [RG-120110]	0.8	0.5	
Cc1cc(C)cc(C2=NOC(C)(C)N2NC(=O)NC(=O)c2ccccc2)c1 [RG-120111]	0.6	0.7	
COc1ccc(C2=NOC(C)(C)N2NC(=O)Nc2ccccc2)c(OC)c1 [RG-120114]	1.1	0.6	

SMILES	Fold Induction Average, 13B3 assay [1]	Fold Induction Average, Z3 assay (Bombyx mori EcR (VBE))	further results
CC1(C)ON=C(c2ccc(Cl)cc2)N1NC(=O)COCc1ccccc1 [RG-120117]	1.2	0.8	
CC1(C)ON=C(c2ccc(Cl)cc2)N1NC(=O)Cc1ccccc1 [RG-120121]	0.1	0.7	
CC1(C)ON=C(c2ccc(OC(F)(F)F)cc2)N1NC(=O)Nc1ccccc1 [RG-120122]	0.5	0.6	
CC1(C)ON=C(c2ccc3c(c2)OCO3)N1NC(=O)COc1ccccc1 [RG-120127]	0.6	0.7	
COc1ccc(C2=NOC(C)(C)N2NC(=O)c2cc3ccccc3s2)c(OC)c1 [RG-120129]	0.9	0.4	
CC1(C)ON=C(c2ccc3c(c2)OCO3)N1NC(=O)c1cc2ccccc2s1 [RG-120140]	1.4	0.5	
CCc1ccc(C(=O)NN2C(c3ccc(-c4ccccc4)cc3)=NOC2(C)C)cc1 [RG-120142]	0.3	0.4	
CCOC(=O)CCC(=O)NN1C(c2ccccc2OC)=NOC1(C)C [RG-120144]	0.1	0.7	
CC1(C)ON=C(c2ccc3c(c2)OCO3)N1NC(=O)COCc1ccccc1 [RG-120145]	1.4	0.5	
COc1ccccc1C1=NOC(C)(C)N1NC(=O)c1ccccc1 [RG-120147]	1.1	1.0	
CC1(C)ON=C(c2ccc3c(c2)OCO3)N1NC(=O)c1ccco1 [RG-120149]	1.1	0.7	
CC1(C)ON=C(c2ccc(Cl)cc2)N1NC(=O)c1ccccc1 [RG-120151]	0.3	0.8	
CCOC(=O)CCC(=O)NN1C(c2cccc(C(F)(F)F)c2)=NOC1(C)C [RG-120153]	0.8	0.7	
CC1(C)ON=C(c2ccc3c(c2)OCO3)N1NC(=O)c1ccccc1 [RG-120156]	1.4	0.7	
CC1(C)ON=C(c2ccc(OC(F)(F)F)cc2)N1NC(=O)Cc1ccccc1 [RG-120160]	0.3	0.6	
CC1(C)ON=C(c2ccc(Cl)cc2)N1NC(=O)COc1ccccc1 [RG-120162]	0.9	0.7	
CC1(C)ON=C(c2cccc(C(F)(F)F)c2)N1NC(=O)COc1ccccc1 [RG-120163]	1.1	0.5	
CCOC(=O)CCC(=O)NN1C(c2ccc(Cl)cc2)=NOC1(C)C [RG-120164]	1.7	0.6	
